Results as given in the supplement of paper PMC11061612.

What was measured:
[1] = tested on: WIL2-NS (Non-Cancerous); assay: combination Emax (second highest fraction inhibited in the dose matrix, 72 h); higher = more inhibition; extreme values may be limits of the assay
Summary of the method: (§1)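 After 24 hours at 37°C and 5% CO2 in 1536-well plates, cells in DMEM/F12 or RPMI plus 10% FBS received two-drug dose matrices for 72 hours. Viability came from CellTiter-Glo 2.0 luminescence and was scaled as inhibition, anchored at 0 by vehicle wells and at 1 by blank wells. Combination Emax is taken as the second-highest inhibition in the matrix, and Bliss excess as the observed combination effect less EA + EB − EA·EB, with EA and EB the single-agent effects.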

[2] = tested on: SR (Other Blood Carcinomas); assay: as above
Summary of the method: as §1

[3] = tested on: K-562 (Chronic Myelogenous Leukemia); assay: as above
Summary of the method: as §1

[4] = tested on: NCI-H2818 (Mesothelioma); assay: as above
Summary of the method: as §1

[5] = tested on: ES1 (Ewing's Sarcoma); assay: as above
Summary of the method: as §1

[6] = tested on: SW1417 (Colorectal Carcinoma); assay: as above
Summary of the method: as §1

[7] = tested on: MKN28 (Gastric Carcinoma); assay: as above
Summary of the method: as §1

[8] = tested on: DND-41 (T-Lymphoblastic Leukemia); assay: as above
Summary of the method: as §1

[9] = tested on: SW837 (Colorectal Carcinoma); assay: as above
Summary of the method: as §1

[10] = tested on: GR-ST (B-Lymphoblastic Leukemia); assay: as above
Summary of the method: as §1

[11] = tested on: BFTC-905 (Bladder Carcinoma); assay: as above
Summary of the method: as §1

[12] = tested on: CAMA-1 (Breast Carcinoma); assay: as above
Summary of the method: as §1

[13] = tested on: L-540 (Hodgkin's Lymphoma); assay: as above
Summary of the method: as §1

[14] = tested on: BL-41 (Burkitt's Lymphoma); assay: as above
Summary of the method: as §1

[15] = tested on: ES8 (Ewing's Sarcoma); assay: as above
Summary of the method: as §1

[16] = tested on: WM-115 (Melanoma); assay: as above
Summary of the method: as §1

[17] = tested on: NCI-H1792 (Lung Adenocarcinoma); assay: as above
Summary of the method: as §1

[18] = tested on: WIL2-NS (Non-Cancerous); assay: Bliss excess, mean over the matrix (fraction); higher = more synergy
Summary of the method: as §1

[19] = tested on: SR (Other Blood Carcinomas); assay: as above
Summary of the method: as §1

[20] = tested on: K-562 (Chronic Myelogenous Leukemia); assay: as above
Summary of the method: as §1

[21] = tested on: NCI-H2818 (Mesothelioma); assay: as above
Summary of the method: as §1

[22] = tested on: ES1 (Ewing's Sarcoma); assay: as above
Summary of the method: as §1

[23] = tested on: SW1417 (Colorectal Carcinoma); assay: as above
Summary of the method: as §1

[24] = tested on: MKN28 (Gastric Carcinoma); assay: as above
Summary of the method: as §1

[25] = tested on: DND-41 (T-Lymphoblastic Leukemia); assay: as above
Summary of the method: as §1

[26] = tested on: SW837 (Colorectal Carcinoma); assay: as above
Summary of the method: as §1

[27] = tested on: GR-ST (B-Lymphoblastic Leukemia); assay: as above
Summary of the method: as §1

[28] = tested on: BFTC-905 (Bladder Carcinoma); assay: as above
Summary of the method: as §1

[29] = tested on: CAMA-1 (Breast Carcinoma); assay: as above
Summary of the method: as §1

[30] = tested on: L-540 (Hodgkin's Lymphoma); assay: as above
Summary of the method: as §1

[31] = tested on: BL-41 (Burkitt's Lymphoma); assay: as above
Summary of the method: as §1

[32] = tested on: ES8 (Ewing's Sarcoma); assay: as above
Summary of the method: as §1

[33] = tested on: WM-115 (Melanoma); assay: as above
Summary of the method: as §1

[34] = tested on: NCI-H1792 (Lung Adenocarcinoma); assay: as above
Summary of the method: as §1
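For Bliss excess, mean over the matrix in this document: after 72 h of two-drug dosing.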

| SMILES | combination Emax [1] | combination Emax [2] | combination Emax [3] | combination Emax [4] | combination Emax [5] | combination Emax [6] | combination Emax [7] | combination Emax [8] | combination Emax [9] | combination Emax [10] | combination Emax [11] | combination Emax [12] | combination Emax [13] | combination Emax [14] | combination Emax [15] | combination Emax [16] | combination Emax [17] | Bliss excess [18] | Bliss excess [19] | Bliss excess [20] | Bliss excess [21] | Bliss excess [22] | Bliss excess [23] | Bliss excess [24] | Bliss excess [25] | Bliss excess [26] | Bliss excess [27] | Bliss excess [28] | Bliss excess [29] | Bliss excess [30] | Bliss excess [31] | Bliss excess [32] | Bliss excess [33] | Bliss excess [34] |
| --- | --- | --- | --- | --- | --- | --- | --- | --- | --- | --- | --- | --- | --- | --- | --- | --- | --- | --- | --- | --- | --- | --- | --- | --- | --- | --- | --- | --- | --- | --- | --- | --- | --- | --- |
| CC1(C)CCC(CN2CCN(c3ccc(C(=O)NS(=O)(=O)c4ccc(NCC5CCOCC5)c([N+](=O)[O-])c4)c(Oc4cnc5[nH]ccc5c4)c3)CC2)=C(c2ccc(Cl)cc2)C1 [Venetoclax] + CS(=O)(=O)CCNCc1ccc(-c2ccc3ncnc(Nc4ccc(OCc5cccc(F)c5)c(Cl)c4)c3c2)o1 [Lapatinib] (first compound max 1 µM, 7x7, partner max 10 µM) | 0.348 | 0.36 | 0.451 | 0.174 | 0.381 | 0.136 | 0.397 | 0.81 | 0.185 | 0.934 | 0.254 | 0.162 | 0.532 | 0.855 | 0.506 | 0.237 | 0.345 | 0.0039 | 0.0557 | -0.0039 | -0.0651 | -0.0215 | -0.0168 | -0.0303 | -0.0268 | -0.0498 | -0.0246 | -0.0591 | -0.0271 | -0.005 | 0.0434 | -0.0229 | -0.0897 | -0.0311 |
| N#Cc1cnc(Nc2cc(NC[C@H]3CNCCO3)c(C(F)(F)F)cn2)cn1 [SRA737] + Nc1ccn([C@@H]2O[C@H](CO)[C@@H](O)C2(F)F)c(=O)n1 [Gemcitabine] (first compound max 10 µM, 7x7, partner max 0.3 µM) | 0.983 | 1 | 0.933 | 0.473 | 1 | 0.685 | 0.575 | 0.908 | 0.75 | 0.871 | 0.868 | 0.455 | 0.962 | 1 | 1 | 0.501 | 0.922 | -0.0384 | 0.0325 | 0.0559 | 0.0002 | 0.0419 | 0.0613 | 0.032 | -0.0197 | 0.121 | 0.0024 | 0.0034 | 0.0294 | 0.0222 | -0.0522 | 0.0504 | -0.0214 | 0.0436 |
| Cc1c2c(nn1C)CSCc1cc(n(C)n1)CSc1cc(c3ccccc3c1)OCCCc1c(C(=O)O)n(C)c3c-2c(Cl)ccc13 [AZD5991] + CC(=O)O[C@H]1C(=O)[C@@]2(C)[C@H]([C@H](OC(=O)c3ccccc3)[C@]3(O)C[C@H](OC(=O)[C@H](O)[C@@H](NC(=O)c4ccccc4)c4ccccc4)C(C)=C1C3(C)C)[C@]1(OC(C)=O)CO[C@@H]1C[C@@H]2O [Paclitaxel] (first compound max 1 µM, 7x7, partner max 3 µM) | 0.824 | 1 | 0.877 | 0.599 | 1 | 0.529 | 0.49 | 0.251 | 0.62 | 0.805 | 0.975 | 0.957 | 1 | 1 | 1 | 0.631 | 0.959 | -0.137 | 0.0191 | -0.0245 | -0.0054 | -0.0419 | 0.0164 | -0.011 | 0.0348 | -0.0327 | -0.0628 | 0.0108 | 0.117 | 0.0087 | -0.0098 | 0.0091 | -0.0392 | -0.0037 |
| C=CCn1c(=O)c2cnc(Nc3ccc(N4CCN(C)CC4)cc3)nc2n1-c1cccc(C(C)(C)O)n1 [AZD1775] + Nc1ccn([C@@H]2O[C@H](CO)[C@@H](O)C2(F)F)c(=O)n1 [Gemcitabine] (first compound max 1 µM, partner max 0.3 µM) | 0.973 | 1 | 0.869 | 0.44 | 1 | 0.663 | 0.552 | 0.943 | 0.691 | 0.855 | 0.836 | 0.534 | 0.968 | 1 | 1 | 0.459 | 0.878 | 0.0149 | 0.0344 | 0.0554 | -0.0333 | 0.0471 | 0.0353 | 0.0781 | 0.0256 | 0.0269 | -0.0072 | -0.0015 | 0.0354 | 0.0052 | -0.0067 | 0.0248 | 0.0368 | -0.0287 |
